For experiment [1], the species on record is Rattus norvegicus. In words: Inhibition of [3H]-dopamine uptake into striatal membrane preparations. In kind it is functional, Striatum.
The species named for experiment [2] is Rattus norvegicus. As to the kind of experiment: Inhibition of [3H]dopamine uptake by striatal membrane preparations. Type of experiment: functional, Striatum.
The species entered for experiment [3] is Rattus norvegicus. In words: Inhibitory concentration for [3H]dopamine uptake by striatal membrane preparations in presence of 500 nM compound 5. In kind it is functional. Particulars: Striatum.
The species named for experiment [4] is Rattus norvegicus. In words: Inhibitory concentration for [3H]dopamine uptake by striatal membrane preparations in presence of 20 nM compound 43. In kind it is functional. Conditions: Striatum.
The species entered for experiment [5] is Rattus norvegicus. In words: Inhibitory concentration for [3H]-dopamine uptake by striatal membrane preparations in presence of 1000 nM compound 5. Type of experiment: functional. Particulars: Striatum.
Experiment [6] is filed under the species Rattus norvegicus. As to the kind of experiment: Inhibitory concentration for [3H]-dopamine uptake by striatal membrane preparations in presence of 50 nM compound 43. Type of experiment: functional. Conditions: Striatum.

Broadly, the Ki is a dissociation constant, usually derived from enzyme kinetics or from competition with a known ligand. Read a low Ki as tighter binding. `Clc1ccc(OCCN2CCC(c3ccc(Cl)cc3)CC2)cc1` gave an inhibition constant Ki in the experiment listed under Rattus norvegicus [1] of 90 nM. In other words, the double-digit nanomolar range.
`Fc1ccc(OCCN2CCC(c3ccccc3)CC2)cc1`: the affinity in the experiment filed under Rattus norvegicus [1], expressed as Ki, was 2720 nM.
With `Fc1ccc(OCCN2CCC(c3ccc(F)cc3)CC2)cc1`, in the experiment listed under Rattus norvegicus [2], the Ki amounted to 840 nM.
Compound `Fc1ccc(CCN2CCC(c3ccc(F)cc3)CC2)cc1` yielded a Ki in the experiment filed under Rattus norvegicus [1] of 1360 nM. In other words, the single-digit micromolar range.
As to `Fc1ccc(CCCCN2CCC(c3ccc(F)cc3)CC2)cc1`, the affinity in the experiment listed under Rattus norvegicus [1] corresponds to a Ki of 2540 nM.
On the same count and under the same terms, the value for `OC1(c2ccccc2)CCN(CCOc2ccc(F)cc2)CC1` was 17600 nM.
With `O=C(CCN1CCC(c2ccccc2)CC1)c1ccc(F)cc1`, the Ki in the experiment filed under Rattus norvegicus [1] is 1560 nM.
Still for that read-out and setting: in the case of `Fc1ccc(CN2CCC(c3ccc(F)cc3)CC2)cc1` it was above 10000 nM; in that of `O=C(CCCN1CCC(c2ccc(F)cc2)CC1)c1ccc(F)cc1`, 3170 nM; in that of `O=C(CN1CCC(c2ccc(F)cc2)CC1)c1ccc(F)cc1`, 4330 nM.
On the same count and under the same terms, in the case of `O=C(CCN1CCC(c2ccc(F)cc2)CC1)c1ccc(F)cc1` it was 2670 nM.
A word on the IC50: it is the concentration needed to halve the response being measured. For `COC(=O)[C@H]1[C@@H](OC(=O)c2ccccc2)C[C@@H]2CC[C@H]1N2C` [COCAINE], the IC50 was 538 nM in the experiment filed under Rattus norvegicus [3], 490 nM in the experiment listed under Rattus norvegicus [4], 686 nM in the experiment filed under Rattus norvegicus [5] and 696 nM in the experiment filed under Rattus norvegicus [6].

Source of the values: ChEMBL document CHEMBL1134191, “Pharmacophore-based discovery, synthesis, and biological evaluation of 4-phenyl-1-arylalkyl piperidines as dopamine transporter inhibitors” (Bioorg Med Chem Lett, 2001).
